From ChEMBL document CHEMBL1149379, “Pyrrolo(iso)quinoline derivatives as 5-HT(2C) receptor agonists” (Bioorg Med Chem Lett, 2006)
The source made the active and inactive calls. The calls are words filed in the database; no cut-off is given here.

Assays:
[1] = target: T1, 5-hydroxytryptamine receptor 2B (Homo sapiens, UniProt P41595); test: Binding to human 5HT2B receptor expressed in CHO cells; assay type: cell-based
[2] = target: T1, 5-hydroxytryptamine receptor 2B; test: Binding to human 5HT2B receptor expressed in CHO cells relative to 5HT; assay type: cell-based
[3] = target: T2, 5-hydroxytryptamine receptor 2C (Homo sapiens) (UniProt P28335); test: Binding to human 5HT2C receptor expressed in CHO cells relative to 5HT; assay type: cell-based
T2 sequence (whole entry): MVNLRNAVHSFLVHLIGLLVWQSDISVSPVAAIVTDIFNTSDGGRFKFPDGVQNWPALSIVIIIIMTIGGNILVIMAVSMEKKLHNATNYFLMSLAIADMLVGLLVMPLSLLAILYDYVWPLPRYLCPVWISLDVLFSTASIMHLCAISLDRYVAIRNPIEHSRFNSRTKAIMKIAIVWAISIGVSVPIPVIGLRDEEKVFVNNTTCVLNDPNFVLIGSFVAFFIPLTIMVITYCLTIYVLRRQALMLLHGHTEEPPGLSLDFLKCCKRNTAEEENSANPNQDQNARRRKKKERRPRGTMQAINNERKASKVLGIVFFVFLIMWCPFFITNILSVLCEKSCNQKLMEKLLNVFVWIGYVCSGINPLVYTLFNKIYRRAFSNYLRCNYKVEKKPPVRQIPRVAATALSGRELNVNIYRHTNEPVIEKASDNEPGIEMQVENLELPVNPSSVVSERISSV

[4] = target: T3, 5-hydroxytryptamine receptor 2A (Homo sapiens, UniProt P28223); test: Binding to human 5HT2A receptor expressed in CHO cells relative to 5HT; assay type: cell-based
[5] = target: T3, 5-hydroxytryptamine receptor 2A; test: Displacement of [125I]DOI from human 5HT2A
[6] = target: T4, 5-hydroxytryptamine receptor 2C (Homo sapiens, UniProt P28335); test: Displacement of [3H]5-HT from human 5HT2C
T4 sequence (P28335 whole entry): T2 sequence (whole entry)

[7] = target: T3, 5-hydroxytryptamine receptor 2A; test: Binding to human 5HT2A receptor expressed in CHO cells; assay type: cell-based
[8] = target: T4, 5-hydroxytryptamine receptor 2C; test: Binding to human 5HT2C receptor expressed in CHO cells; assay type: cell-based
[9] = target: T1, 5-hydroxytryptamine receptor 2B; test: Displacement of [3H]5-HT from human 5HT2B
Rattus norvegicus [10] = test: Reduction in food intake in food-deprived rats after 4 hrs of administration of 3 mg/kg; assay type: functional, organism-based; design: dose 3 mg/kg
Rattus norvegicus [11] = species: Rattus norvegicus; test: Blocking of anorectic effect in rats pre-treated with SB-242084; assay type: functional, organism-based

T1 sequence (P41595 whole entry): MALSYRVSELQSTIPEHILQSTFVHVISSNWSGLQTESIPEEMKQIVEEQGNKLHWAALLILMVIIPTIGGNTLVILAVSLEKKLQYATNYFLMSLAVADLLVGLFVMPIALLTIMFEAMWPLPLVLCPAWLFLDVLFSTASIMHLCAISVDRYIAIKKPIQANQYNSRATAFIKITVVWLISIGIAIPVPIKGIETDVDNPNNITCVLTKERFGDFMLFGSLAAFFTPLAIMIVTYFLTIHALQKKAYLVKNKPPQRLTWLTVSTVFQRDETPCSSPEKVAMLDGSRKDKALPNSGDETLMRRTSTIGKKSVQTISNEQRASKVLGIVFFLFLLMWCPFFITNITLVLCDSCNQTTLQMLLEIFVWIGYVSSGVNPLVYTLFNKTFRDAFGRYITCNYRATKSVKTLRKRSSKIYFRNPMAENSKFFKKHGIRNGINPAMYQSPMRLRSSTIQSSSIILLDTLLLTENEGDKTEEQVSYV
T3 sequence (P28223 whole entry): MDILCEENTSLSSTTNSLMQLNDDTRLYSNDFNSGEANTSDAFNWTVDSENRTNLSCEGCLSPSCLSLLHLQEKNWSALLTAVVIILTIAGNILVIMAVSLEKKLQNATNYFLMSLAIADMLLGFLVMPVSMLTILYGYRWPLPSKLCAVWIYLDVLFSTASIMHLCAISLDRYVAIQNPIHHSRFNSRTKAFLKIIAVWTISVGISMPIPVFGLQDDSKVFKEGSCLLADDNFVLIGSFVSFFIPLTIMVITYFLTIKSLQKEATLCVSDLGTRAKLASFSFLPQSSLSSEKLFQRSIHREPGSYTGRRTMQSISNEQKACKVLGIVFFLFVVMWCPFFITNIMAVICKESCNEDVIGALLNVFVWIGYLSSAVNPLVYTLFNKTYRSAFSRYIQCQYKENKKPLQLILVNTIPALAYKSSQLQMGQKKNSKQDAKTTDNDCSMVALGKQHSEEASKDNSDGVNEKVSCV

Row | Structure (SMILES) | EC50 [1] | Efficacy [2] | Efficacy [3] | Efficacy [4] | Ki [5] | Ki [6] | EC50 [7] | EC50 [8] | Ki [9] | Activity (Rattus norvegicus [10]) | Activity (Rattus norvegicus [11])
1 | C[C@@H](Cn1ccc2ccc3ncccc3c21)NCc1ccccc1 | 97 nM | 70% | 86% | 39% | 842 nM | 77 nM | > 1000 nM | 200 nM | 515 nM | – | –
2 | C[C@@H](Cn1ccc2ccc3ncccc3c21)NCc1ccc2ccccc2c1 | 27 nM | 76% | 99% | 56% | 181 nM | 16 nM | 222 nM | 52 nM | 136 nM | – | –
3 | CCN[C@@H](C)Cc1cccc(C(F)(F)F)c1 | – | – | – | – | – | – | – | – | – | Active | –
4 | C[C@H](N)Cn1ccc2ccc3ncccc3c21 | 1.1 nM | 65% | 99% | 88% | 31 nM | 1.6 nM | 32 nM | 2.9 nM | – | Active | Dose-dependent effect
5 | C[C@H](N)Cn1ccc2cc(Cl)c3ncccc3c21 | 2.1 nM | 61% | 101% | 85% | 29 nM | 2.4 nM | 36 nM | 6.9 nM | 18 nM | – | –
6 | Cc1ccccc1CN[C@@H](C)Cn1ccc2ccc3ncccc3c21 | 128 nM | 64% | 87% | 49% | 1680 nM | 171 nM | > 1000 nM | 219 nM | 739 nM | – | –
7 | C[C@H](N)Cn1ccc2cc(F)c(Cl)cc21 | – | 71% | 93% | 72% | – | – | – | – | – | – | –
8 | C[C@@H](Cn1ccc2ccc3ncccc3c21)NCc1ccccc1Cl | 44 nM | 72% | 95% | 58% | 674 nM | 39 nM | 638 nM | 74 nM | 380 nM | – | –
9 | C=CCN[C@@H](C)Cn1ccc2ccc3ncccc3c21 | 91 nM | 70% | 92% | 54% | 1160 nM | 86 nM | 777 nM | 257 nM | 455 nM | – | –
10 | C[C@H](N)Cn1ccc2ccc3cnccc3c21 | 152 nM | 70% | 93% | 63% | 1040 nM | 72 nM | > 1000 nM | 297 nM | 778 nM | – | –
11 | NCCc1c[nH]c2ccc(O)cc12 | – | – | – | 98% | – | – | – | – | – | – | –
12 | Clc1cccc(N2CCNCC2)c1 | – | 33% | 83% | 41% | – | – | – | – | – | – | –
13 | C[C@@H](Cn1ccc2ccc3ncccc3c21)NCC1CCCCC1 | 128 nM | 67% | 88% | 32% | 927 nM | 78 nM | > 1000 nM | 348 nM | 624 nM | – | –
14 | COc1ccccc1CN[C@@H](C)Cn1ccc2ccc3ncccc3c21 | 462 nM | 41% | 77% | 24% | 1570 nM | 168 nM | > 1000 nM | 551 nM | 883 nM | – | –
15 | C[C@@H](Cn1ccc2ccc3ncccc3c21)NCc1ccc2c(c1)OCO2 | 20 nM | 71% | 98% | 69% | 398 nM | 16 nM | 359 nM | 42 nM | 138 nM | – | –
16 | C[C@H](N)Cn1ccc2ccc3ccncc3c21 | 62 nM | 67% | 98% | 67% | 230 nM | 37 nM | 473 nM | 73 nM | 210 nM | – | –
17 | C[C@H](N)Cn1ccc2ccc3cccnc3c21 | 45 nM | 60% | 39% | 41% | 229 nM | 27 nM | 446 nM | 97 nM | 115 nM | – | –
